Source: US10966426B2, “Herbicidal compositions comprising phenylpyrimidines” (BASF SE, priority 2016, dated 2021)
Where “and” joins values, the source holds several entries; their conditions need not be identical. Equal entries are not always repeated.

Assays:
Assay type in all cases: in vivo
Matricaria chamomilla = assay: greenhouse post-emergence treatment, MATCH; settings: MATCH
Summary of the method: (§1)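 Foliar application to greenhouse-grown plants 3–15 cm tall in humus-containing loamy sand; response assessed on a 0–100 scale after 2–4 weeks, with Colby's E=X+Y−(X·Y/100) as the additive expectation.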

Lolium multiflorum = assay: greenhouse post-emergence treatment, LOLMU
Summary of the method: (§2)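 Plants were grown in pots of loamy sand with approximately 3.0% humus, either sown directly or transplanted as seedlings a few days before treatment, and sprayed with water-based treatments. They were kept at 10-25° C. or 20-35° C. depending on species and rated visually after 2 to 4 weeks on a 0–100 scale (100 = no emergence or complete destruction of above-ground parts).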

Polygonum convolvulus = assay: greenhouse post-emergence treatment, POLCO
Summary of the method: as §1

Setaria viridis = assay: greenhouse post-emergence treatment, SETVI
Summary of the method: as §2

Echinocloa crus-galli = assay: greenhouse post-emergence treatment, ECHCG
Summary of the method: as §1

Bromus sterilis = assay: greenhouse post-emergence treatment, BROST
Summary of the method: as §2

Brachiaria decumbens = assay: greenhouse post-emergence treatment, BRADC
Summary of the method: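 Greenhouse; post-emergence spray at 3–15 cm; aqueous EC formulation; 2–4 weeks; 0–100 visual score.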

[1] = 20 DAT, Ex. 26 solo 62.5 gai/ha

`COC(=O)c1nc(C2CC2)ncc1-c1ccc(F)cc1Cl` [Ex. 26] was tested, and the “% activity” value (Matricaria chamomilla; 21 DAT, solo Ex. 26 62.5 gai/ha) was 0%, the “% activity” value (Matricaria chamomilla; Ex. 26 solo 62.5 gai/ha, 20 DAT) was 0% and the “% activity” value (Lolium multiflorum; [1]) was 0%. For the same compound, the “% activity” value (Lolium multiflorum; 20 DAT, LOLMU, Ex. 26 solo 125 gai/ha) was 65% and 55%, the “% activity” value (Lolium multiflorum; 20 DAT, LOLMU, Ex. 26 solo 250 gai/ha) was 65% and the “% activity” value (Lolium multiflorum; 21 DAT, Ex. 26 solo 125 gai/ha) was 10%. For the same compound, the “% activity” value (Lolium multiflorum; 21 DAT, Ex. 26 solo 250 gai/ha) was 55%, the “% activity” value (Lolium multiflorum; Ex. 26 solo 62.5 gai/ha, 20 DAT, LOLMU (pyridate table)) was 0% and the “% activity” value (Lolium multiflorum; Ex. 26 solo 62.5 gai/ha, 20 DAT, LOLMU (pyroxsulam table)) was 10%. For the same compound, the “% activity” value (Lolium multiflorum; Ex. 26 solo 62.5 gai/ha, 21 DAT, LOLMU) was 0%, the “% activity” value (Lolium multiflorum; Ex. 26 solo 125 gai/ha, 20 DAT, LOLMU (pyridate table)) was 35% and the “% activity” value (Lolium multiflorum; Ex. 26 solo 125 gai/ha, 20 DAT, LOLMU (pyroxsulam table)) was 35%. The “% activity” value (Lolium multiflorum; Ex. 26 solo 125 gai/ha, 21 DAT, LOLMU) was 10%, the “% activity” value (Lolium multiflorum; Ex. 26 solo 250 gai/ha, 20 DAT, LOLMU (pyridate table)) was 60% and the “% activity” value (Lolium multiflorum; Ex. 26 solo 250 gai/ha, 20 DAT, LOLMU (pyroxsulam table)) was 55%. For the same compound, the “% activity” value (Lolium multiflorum; Ex. 26 solo, 125 gai/ha, 20 DAT, LOLMU) was 0%, the “% activity” value (Lolium multiflorum; Ex. 26 solo, 125 gai/ha, 21 DAT, LOLMU) was 15% and the “% activity” value (Lolium multiflorum; Ex. 26 solo, 250 gai/ha, 20 DAT, LOLMU) was 25%. The “% activity” value (Lolium multiflorum; Ex. 26 solo, 250 gai/ha, 21 DAT, LOLMU) was 30%, the “% activity” value (Lolium multiflorum; LOLMU, 21 DAT, solo Ex. 26 62.5 gai/ha) was 0% and the “% activity” value (Lolium multiflorum; LOLMU, 21 DAT, solo Ex. 26 125 gai/ha) was 15%. For the same compound, the “% activity” value (Lolium multiflorum; LOLMU, 21 DAT, solo Ex. 26 250 gai/ha) was 30%, the “% activity” value (Lolium multiflorum; LOLMU, Ex. 26 solo 125 gai/ha, 20 DAT) was 55% and 35% and the “% activity” value (Lolium multiflorum; LOLMU, Ex. 26 solo 250 gai/ha, 20 DAT) was 65%. The “% activity” value (Polygonum convolvulus; 20 DAT, Ex. 26 solo 250 gai/ha) was 30%, the “% activity” value (Polygonum convolvulus; 20 DAT, POLCO, Ex. 26 solo 62.5 gai/ha) was 65% and the “% activity” value (Polygonum convolvulus; 20 DAT, POLCO, Ex. 26 solo 125 gai/ha) was 85% and 80%. The “% activity” value (Polygonum convolvulus; 21 DAT, Ex. 26 solo 125 gai/ha) was 0%, the “% activity” value (Polygonum convolvulus; Ex. 26 solo 62.5 gai/ha, 20 DAT, POLCO) was 30% and the “% activity” value (Polygonum convolvulus; Ex. 26 solo 62.5 gai/ha, 21 DAT, POLCO) was 0%. For the same compound, the “% activity” value (Polygonum convolvulus; Ex. 26 solo 125 gai/ha, 20 DAT, POLCO) was 90%, the “% activity” value (Polygonum convolvulus; Ex. 26 solo 125 gai/ha, 21 DAT, POLCO) was 0% and the “% activity” value (Polygonum convolvulus; Ex. 26 solo, 125 gai/ha, 20 DAT, POLCO) was 5%. The “% activity” value (Polygonum convolvulus; Ex. 26 solo, 125 gai/ha, 21 DAT, POLCO) was 35%, the “% activity” value (Polygonum convolvulus; Ex. 26 solo, 250 gai/ha, 20 DAT, POLCO) was 30% and the “% activity” value (Polygonum convolvulus; Ex. 26 solo, 250 gai/ha, 21 DAT, POLCO) was 85%. For the same compound, the “% activity” value (Polygonum convolvulus; POLCO, 21 DAT, solo Ex. 26 62.5 gai/ha) was 0%, the “% activity” value (Polygonum convolvulus; POLCO, 21 DAT, solo Ex. 26 125 gai/ha) was 35% and the “% activity” value (Polygonum convolvulus; POLCO, 21 DAT, solo Ex. 26 250 gai/ha) was 85%. For the same compound, the “% activity” value (Setaria viridis; [1]) was 0%, the “% activity” value (Setaria viridis; 21 DAT, Ex. 26 solo 125 gai/ha) was 0% and the “% activity” value (Setaria viridis; 21 DAT, Ex. 26 solo 250 gai/ha) was 0%. The “% activity” value (Setaria viridis; Ex. 26 solo 62.5 gai/ha, 20 DAT, SETVI (pyridate table)) was 0%, the “% activity” value (Setaria viridis; Ex. 26 solo 62.5 gai/ha, 20 DAT, SETVI (pyroxsulam table)) was 0% and the “% activity” value (Setaria viridis; Ex. 26 solo 125 gai/ha, 20 DAT, SETVI (pyridate table)) was 20%. The “% activity” value (Setaria viridis; Ex. 26 solo 125 gai/ha, 20 DAT, SETVI (pyroxsulam table)) was 0%, the “% activity” value (Setaria viridis; Ex. 26 solo 250 gai/ha, 20 DAT, SETVI (pyridate table)) was 25% and the “% activity” value (Setaria viridis; Ex. 26 solo 250 gai/ha, 20 DAT, SETVI (pyroxsulam table)) was 10%. The “% activity” value (Setaria viridis; Ex. 26 solo, 125 gai/ha, 21 DAT, SETVI) was 10%, the “% activity” value (Setaria viridis; Ex. 26 solo, 250 gai/ha, 21 DAT, SETVI) was 15% and the “% activity” value (Setaria viridis; SETVI, 21 DAT, solo Ex. 26 62.5 gai/ha) was 10%. For the same compound, the “% activity” value (Setaria viridis; SETVI, 21 DAT, solo Ex. 26 125 gai/ha) was 10%, the “% activity” value (Echinocloa crus-galli; 20 DAT, ECHCG, Ex. 26 solo 125 gai/ha) was 65% and the “% activity” value (Echinocloa crus-galli; 20 DAT, ECHCG, Ex. 26 solo 250 gai/ha) was 70%. The “% activity” value (Echinocloa crus-galli; 20 DAT, Ex. 26 solo 250 gai/ha) was 80% and 60%, the “% activity” value (Echinocloa crus-galli; ECHCG, Ex. 26 solo 62.5 gai/ha, 20 DAT) was 60% and the “% activity” value (Echinocloa crus-galli; ECHCG, Ex. 26 solo 125 gai/ha, 20 DAT) was 65%. For the same compound, the “% activity” value (Echinocloa crus-galli; ECHCG, Ex. 26 solo 250 gai/ha, 20 DAT) was 70% and 65%, the “% activity” value (Echinocloa crus-galli; Ex. 26 solo 62.5 gai/ha, 21 DAT, ECHCG) was 50% and the “% activity” value (Echinocloa crus-galli; Ex. 26 solo 250 gai/ha, 20 DAT, ECHCG) was 65%. The “% activity” value (Bromus sterilis; 20 DAT, BROST, Ex. 26 solo 125 gai/ha) was 60% and 35%, the “% activity” value (Bromus sterilis; 20 DAT, BROST, Ex. 26 solo 250 gai/ha) was 65% and the “% activity” value (Bromus sterilis; [1]) was 0%. The “% activity” value (Bromus sterilis; 20 DAT, Ex. 26 solo 250 gai/ha) was 35% and 55% and 30%, the “% activity” value (Bromus sterilis; 21 DAT, Ex. 26 solo 125 gai/ha) was 5% and the “% activity” value (Bromus sterilis; 21 DAT, Ex. 26 solo 250 gai/ha) was 35%. For the same compound, the “% activity” value (Bromus sterilis; BROST, Ex. 26 solo 125 gai/ha, 20 DAT) was 60% and 35% and 40%, the “% activity” value (Bromus sterilis; BROST, Ex. 26 solo 250 gai/ha, 20 DAT) was 65% and the “% activity” value (Bromus sterilis; Ex. 26 solo 62.5 gai/ha, 20 DAT, BROST) was 0%. The “% activity” value (Bromus sterilis; Ex. 26 solo 125 gai/ha, 21 DAT, BROST) was 5%, the “% activity” value (Bromus sterilis; Ex. 26 solo 250 gai/ha, 21 DAT, BROST) was 35% and the “% activity” value (Bromus sterilis; Ex. 26 solo, 125 gai/ha, 20 DAT, BROST) was 5%. For the same compound, the “% activity” value (Bromus sterilis; Ex. 26 solo, 125 gai/ha, 21 DAT, BROST) was 15%, the “% activity” value (Bromus sterilis; Ex. 26 solo, 250 gai/ha, 21 DAT, BROST) was 25% and the “% activity” value (Brachiaria decumbens; 20 DAT, BRADC, Ex. 26 solo 125 gai/ha) was 30% and 55%. For the same compound, the “% activity” value (Brachiaria decumbens; 20 DAT, BRADC, Ex. 26 solo 250 gai/ha) was 60%, the “% activity” value (Brachiaria decumbens; [1]) was 0% and the “% activity” value (Brachiaria decumbens; 20 DAT, Ex. 26 solo 250 gai/ha) was 35% and 50% and 30%. For the same compound, the “% activity” value (Brachiaria decumbens; BRADC, 21 DAT, solo Ex. 26 62.5 gai/ha) was 0%, the “% activity” value (Brachiaria decumbens; BRADC, 21 DAT, solo Ex. 26 125 gai/ha) was 10% and the “% activity” value (Brachiaria decumbens; BRADC, 21 DAT, solo Ex. 26 250 gai/ha) was 40%. For the same compound, the “% activity” value (Brachiaria decumbens; BRADC, Ex. 26 solo 125 gai/ha, 20 DAT) was 30% and 40%, the “% activity” value (Brachiaria decumbens; Ex. 26 solo 62.5 gai/ha, 20 DAT, BRADC (pyridate table)) was 20% and the “% activity” value (Brachiaria decumbens; Ex. 26 solo 62.5 gai/ha, 20 DAT, BRADC (pyroxsulam table)) was 0%. The “% activity” value (Brachiaria decumbens; Ex. 26 solo 62.5 gai/ha, 21 DAT, BRADC) was 0%, the “% activity” value (Brachiaria decumbens; Ex. 26 solo 125 gai/ha, 20 DAT, BRADC (pyridate table)) was 40% and the “% activity” value (Brachiaria decumbens; Ex. 26 solo 125 gai/ha, 20 DAT, BRADC (pyroxsulam table)) was 20%. The “% activity” value (Brachiaria decumbens; Ex. 26 solo 125 gai/ha, 21 DAT, BRADC) was 0%, the “% activity” value (Brachiaria decumbens; Ex. 26 solo 250 gai/ha, 20 DAT, BRADC (pyroxsulam table)) was 35% and the “% activity” value (Brachiaria decumbens; Ex. 26 solo, 125 gai/ha, 20 DAT, BRADC) was 0%. For the same compound, the “% activity” value (Brachiaria decumbens; Ex. 26 solo, 125 gai/ha, 21 DAT, BRADC) was 10%, the “% activity” value (Brachiaria decumbens; Ex. 26 solo, 250 gai/ha, 20 DAT, BRADC) was 30% and the “% activity” value (Brachiaria decumbens; Ex. 26 solo, 250 gai/ha, 21 DAT, BRADC) was 40%.
